Experimental data reported in US6814951B1, “Acetaldehyde and malondialdehyde protein adducts as markers for alcohol liver disease” (The Board of Regents of the University of Nebraska, priority 1995, dated 2004).

What was measured:
[1] = molecular target: affinity-purified polyclonal antibody specific for MAA adducts; assay: Competitive ELISA: inhibition of MAA-specific antibody binding to solid-phase BSA-MAA; design: species or system rabbit; settings: for 50% inhibitory concentration: bovine serum albumin-MAA as solid phase antigen
Source text: A competitive ELISA was developed in order to detect the presence and to quantify the level of MDA/acetaldehyde modified proteins. Following the basic methodology developed by Roberts, et al, “A Sensitive Immunochemical Assay for Acetaminophen-Protein Adducts”, J Pharmacol Exp Ther, 1987; 241:527-533; Pumford, et al, “Immunochemical Quantitation of 3-(cystein-S-yl)Acetaminophen Adducts in Serum and Liver Proteins of Acetaminophen-Treated Mice”, J Pharmacol Exp Ther, 1989; 248:190-196, incorporated herein by reference, these assays were conducted by allowing a limiting amount of antibody to react with inhibitor, either standard or unknown, in the presence of excess solid phase antigen (MDA/acetaldehyde modified proteins). […] Biotinylated antibody (1/500 final dilution) was incubated with varying concentrations of test samples (standards or unknowns) overnight at 4° C., and then a 100 μl-aliquot of each sample was added to duplicate wells of the coated plates and incubated for 45 minutes at 37° C. After washing, 100 μl of alkaline phosphatase-conjugated streptavidin was added, and procedures as described above for the Direct ELISA were used to obtain optical density measurements. […] [formula]
where ODmax is OD in the absence of inhibitor, BKG is OD from nonspecific absorption of assay reagents and ODsample is the OD for a given concentration of standard or unknown sample.
An immunological assay, using an affinity-purified polyclonal antibody specific for MAA adducts, was employed to detect the presence of these adducts in livers of ethanol-fed rats. Since MAA adducts are likely composed of more than one distinct product, applicants proposed that 4-methyl-1,4-dihydropyridine-3,5-dicarbaldehyde (MDDC), derivatized to an ε-amino group of lysine, represents a structure for one of the major MAA-protein adducts. The purpose of this study was to characterize the antigen binding properties of the MAA specific antibody and determine whether MDDC epitopes are a major determinant of antibody recognition. A competitive ELISA, utilizing bovine serum albumin-MAA as the solid phase antigen, was used to test the binding specificity of the antibody.

[2] = molecular target: T1, bovine serum albumin (BSA) (Bos taurus, UniProt P02769); assay: Stable binding of acetaldehyde to proteins in the presence of MDA; type: biochemical; settings: acetaldehyde 1 mM, 24 hours of incubation, 4-fold molar excess of MDA
T1 construct: purchased Sigma Chemical Co. (St. Louis, Mo.)
Protocol: Concentrations of acetaldehyde (0.1 mM or 1.0 mM) were incubated with various protein solutions in the absence and presence of varying concentrations of MDA. Incubations were conducted in phosphate buffer (0.1 M, pH 7.4) at 37° C. in polypropylene vessels that were sealed to minimize the loss of volatile radioactivity. The reactions were performed under nitrogen gas in the dark. During a 72-hr incubation period, aliquots were removed for stable acetaldehyde binding determinations and fluorescence measurements as previously described. Hoffmann, “Reaction of Acetaldehyde with Proteins: Formation of Stable Fluorescent Adducts”, Alcohol Clin Exp Res, 1993; 17:69-74. Briefly, postincubation, free and unstable-bound acetaldehyde were separated by exhaustive dialysis against phosphate buffer for 24 hours at 4° C. Radioactivity was then measured in the retenate and represented stably bound acetaldehyde. Results are expressed as nmoles acetaldehyde bound per mg of protein. Fluorescence measurements were obtained on post-dialysis samples using a Perkin Elmer LS-5B spectrophotofluorometer attached to a Perkin Elmer GP-100 graphics printer.
When acetaldehyde (1 mM) was incubated with bovine serum albumin (BSA) in the presence of varying concentrations of MDA over a 72-hour time course, MDA markedly stimulated the binding of acetaldehyde to BSA in a concentration-dependent manner. […]

Balc/c mice = assay: Immunization of mice with BSA or BSA-MAA, antiserum titration by ELISA; type: in vivo; settings: antiserum tested on MSA and MSA-MAA
Protocol: The purpose of this study was to determine how modification of a soluble carrier protein with the MAA adduct alters the humoral immune response. Balc/c mice were immunized weekly by i.p. injection with 100 μg of either bovine serum albumin unmodified (BSA) or modified with MAA (BSA-MAA). Titration of antiserum was performed by ELISA on wells coated with either BSA, BSA-MAA, mouse albumin (MSA) and MSA-MAA. […] In mice immunized with lower concentrations of BSA-MAA, antibody titers decreased in a dose dependent manner to both BSA and BSA-MAA (>1:3200 at 100 μg to 1:2000 at 25 μg).

T1 sequence (P02769 25-607): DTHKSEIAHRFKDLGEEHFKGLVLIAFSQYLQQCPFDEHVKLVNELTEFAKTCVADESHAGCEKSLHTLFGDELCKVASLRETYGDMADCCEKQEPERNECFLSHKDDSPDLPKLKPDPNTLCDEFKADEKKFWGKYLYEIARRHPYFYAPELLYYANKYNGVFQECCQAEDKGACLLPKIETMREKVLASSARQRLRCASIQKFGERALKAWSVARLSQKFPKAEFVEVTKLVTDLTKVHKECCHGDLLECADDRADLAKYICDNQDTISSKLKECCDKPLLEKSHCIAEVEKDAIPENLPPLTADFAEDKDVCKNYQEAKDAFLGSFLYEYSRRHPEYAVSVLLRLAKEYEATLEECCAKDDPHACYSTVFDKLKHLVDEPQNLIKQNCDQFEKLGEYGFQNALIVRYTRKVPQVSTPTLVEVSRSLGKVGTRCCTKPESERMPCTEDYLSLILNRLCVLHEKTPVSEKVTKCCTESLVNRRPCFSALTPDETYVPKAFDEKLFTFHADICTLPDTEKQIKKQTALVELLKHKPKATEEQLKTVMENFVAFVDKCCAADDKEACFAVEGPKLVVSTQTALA

Question: With `CCCCCCN1C=C(C=O)C(C)C(C=O)=C1` [1-hexyl-MDDC] as the compound, how does the 50% inhibitory concentration [1] read?
Answer: 4 pmoles/well

Question: `CC1C(C=O)=CNC=C1C=O` [1-hydrogen MDDC, 4-methyl-1,4-dihydropyridine-3,5-dicarbaldehyde] was tested. Which 50% inhibitory concentration [1] did it give?
Answer: 240 pmoles/well

Question: With `CC1C(C=O)=CN(C)C=C1C=O` [1-methyl MDDC] as the compound, how does the 50% inhibitory concentration [1] read?
Answer: 14 pmoles/well

Question: Which “stimulation of acetaldehyde binding to BSA” value [2] does the source give for `O=CCC=O` [MDA, malondialdehyde] here?
Answer: 13 fold

Question: Which “inhibition of antibody binding” value [1] does the source give for `NC(=O)C1=CN([C@@H]2O[C@H](COP(=O)(O)OP(=O)(O)OC[C@H]3O[C@@H](n4cnc5c(N)ncnc54)[C@H](O)[C@@H]3O)[C@@H](O)[C@H]2O)C=CC1` [NADH, reference compound] here?
Answer: negligible inhibitions

Question: For `Cc1ncc(CO)c(C=O)c1O` [pyridoxal, reference compound], which “inhibition of antibody binding” value [1] is on record?
Answer: negligible inhibitions

Question: “BSA-MAA: bovine serum albumin modified with MAA (malondialdehyde-acetaldehyde adduct)” was tested. Which “antibody titer to the MAA adduct (tested on MSA-MAA)” value (Balc/c mice) did it give?
Answer: significant antibody titer

Question: What about the “response to the autologous protein (MSA)” value (Balc/c mice) of the same compound?
Answer: no response
